Results on 4 compounds are retold here after patent US20260069728A1, “MULTI-TARGETING COMPOUND AND USE THEREOF” (Chengdu Shetai Medical Technology Co., Ltd., priority 2023, published 2026).

Where two headings read alike, the source gives them in different places.

Data set [1] has as its system SUM149PT human breast cancer cell line. Kind of data set: Cell saturation binding assay, SUM149PT. The following applies: 68Ga-labeled compound. On the procedure: (§1) (1) For the cell saturation binding assay, a total of 8 radiolabeled ligand concentrations were set at intervals within the anticipated range. For each concentration, there were 3 groups: the non-inhibition group, the first single inhibition group (FAP single inhibition group), and the second single inhibition group (CXCR4/GRPR/αvβ3 single inhibition group). For each concentration and each group, 3 replicate wells were established.
(§2) (2) Cells were plated into a 24-well plate according to the cell plating procedure described above.
(§3) (3) The original culture medium was removed from the 24-well plate. Then, 400 μL of 100 mg/mL skimmed milk solution was added to each well for blocking for one hour. After removing the skimmed milk solution, each of wells was washed three times by adding 400 μL of PBS solution. Subsequently, 146 μL of FBS-free medium was added to each well. Next, the non-inhibition group received 4 μL of cold PBS per well, while the first single inhibition group and the second single inhibition group received the following additions per well according to Table 4: 2 μL of non-radiolabeled first single inhibitor solution and 2 μL of cold PBS; 2 μL of non-radiolabeled second single inhibitor solution and 2 μL of cold PBS. The plate was then incubated at room temperature for one hour.
(§4) (4) The ligands were radiolabeled with 68Ga using the labeling method described previously. Different volumes of FBS-free medium were added to formulate the radioligand systems at corresponding concentrations. Then, 50 μL of the corresponding concentration of the radioligand system was added to each well.
(§5) (5) The supernatant was removed, and the wells were washed three times with 400 μL of PBS. 200 μL of IM NaOH solution was added to each well for cell lysis. […] Each well was washed once with 400 μL of PBS solution, and the washings were sequentially added to the corresponding radioimmunoassay tubes.
(§6) (6) Radioactivity in the cells was measured using a γ counter. The equilibrium dissociation constant (KD) was obtained by fitting the curve using nonlinear regression analysis in GraphPad Prism software. KD is the drug concentration that causes half of the maximum effect (50% receptor occupancy).

The nature of data set [2]: Isoelectric point (PI) measurement. The format is physicochemical.
In data set [3] the test system is SUM149PT human breast cancer cell line. Kind of data set: Cell uptake and inhibition assay, SUM149PT. Type of data set: cell-based. As to conditions: for cell uptake, comparison of non-inhibition, FAP single, CXCR4 single and dual inhibition groups (in words): FAPI-04 and T140 as inhibitors; for cell uptake over incubation time (in words): non-inhibition group, 15-120 minutes. On the procedure: (§7) The cell lines involved in the cell experiments in the test examples include: SUM149PT human breast cancer cell line, HUTU-80 human duodenal adenocarcinoma cell line, and U-118 MG human brain astrocytoma/glioblastoma cell line.
(§8) SUM149PT: Complete medium was formulated using DMEM high-glucose medium, 10% FBS, and a penicillin-streptomycin solution. The cells were cultured in a constant temperature incubator at 37° C. with 5% CO2. The culture medium was regularly replaced, and the cells were passaged. The culture medium was generally changed every 2 to 3 days. The growth of the tumor cells was observed daily under a microscope, including monitoring cell growth status, checking for adherence, examining cell morphology for any abnormalities, checking for contamination, and observing medium color for any abnormalities. Cells were passaged when they reached 80-90% confluence.
(§9) When cell confluence in the culture flask reached 80%, the cells were digested and centrifuged, and the supernatant was removed. An appropriate amount of medium was added to dilute so that each well contained 500 μL of medium for plating. After thorough mixing by pipetting, the cell suspension was seeded into a 24-well plate at a density of 5×10^5 cells per well. The plate was then placed into the incubator for continued growth. The cells were ready for cellular experiments when they reached 80% confluence.
(§10) (1) The cell uptake assay established four incubation time points: 15, 30, 60, and 120 minutes, respectively. For each time point, four groups were set up: non-inhibition group, a first single inhibition group (FAP single inhibition), a second single inhibition group (CXCR4/GRPR/αvβ3 single inhibition), and a dual inhibition group (FAP inhibitor+CXCR4/GRPR/αvβ3 inhibitor). Each group at each time point was set up with 3 triplicate wells.
as §2
(§11) (3) The original culture medium was removed from the 24-well plate. Then, 400 μL of 100 mg/mL skimmed milk solution was added to each well for blocking for one hour. After removing the skimmed milk solution, each of the wells was washed three times by adding 400 μL of PBS solution. Subsequently, 146 μL of FBS-free medium was added to each well. Next, the non-inhibition group received 4 μL of cold PBS per well, while the first single inhibition group, the second single inhibition group, and the dual inhibition group received the following additions per well according to Table 3: 2 μL of non-radiolabeled first single inhibitor solution and 2 μL of cold PBS: 2 μL of non-radiolabeled second single inhibitor solution and 2 μL of cold PBS; 2 μL of non-radiolabeled first single inhibitor solution (10 mM) and 2 μL of non-radiolabeled second single inhibitor solution (10 mM). The plate was incubated at room temperature for one hour.
(§12) (4) The ^68Ga- and ^177Lu-labeled radioactive ligands were formulated by adding FBS-free medium to achieve a radioligand system concentration of 20 nM. Then, 50 μL of this radioligand system was added to each well. Each group was incubated according to the designated time points: 15, 30, 60, and 120 minutes.
(5) After the incubation was complete, the supernatant was removed, and the wells were washed three times with 400 μL of PBS solution. Then, 200 μL of 1 M NaOH solution was added to each well for cell lysis. […] Each well was then washed once with 400 μL of PBS solution, and this wash solution was also added to the corresponding radioimmunoassay tubes.
(6) The radioactivity in the cells was measured using a γ counter. A bar graph was plotted using GraphPad Prism software. The inhibition rate for each inhibition group was calculated as follows: Inhibition Rate (%)=(1−[Radioactive Count of the Inhibition Group]/[Radioactive Count of the Non-inhibition Group])×100%. […]

Data set [4] concerns U-118 MG human brain astrocytoma/glioblastoma cell line. Kind of data set: Cell uptake and inhibition assay, U-118 MG. The following applies: for cell uptake over incubation time (in words): all groups, 15-120 minutes; for cell uptake, comparison of non-inhibition, FAP single, integrin αvβ3 single and dual inhibition groups (in words): at 30 minutes, FAPI-04 and RGD as inhibitors. The format is cell-based. On the procedure:
as §7
as §8, with “U-118 MG:” for “SUM149PT:”
as §9, §10, §2, §11, §12
(5) After the incubation was complete, the supernatant was removed, and the wells were washed three times with 400 μL of PBS solution. Then, 200 μL of 1 M NaOH solution was added to each well for cell lysis. […]
(6) The radioactivity in the cells was measured using a γ counter. […]

For data set [5] the test system is unchanged. Kind of data set: Cell saturation binding assay, U-118 MG. As to conditions: 68Ga-labeled compound. On the procedure: as §1, §2, §3, §4, §5, §6
The mark [6] stands for this setting: FAPI-04 solution, read-out: KD value, First single inhibition group (FAP single inhibition).
Where [7] appears, read: T140 solution (CXCR4 inhibitor), read-out: KD value, Second single inhibition group (CXCR4/GRPR/αvβ3 single inhibition).
The mark [8] stands for this setting: read-out: KD value, Non-inhibition group.
The mark [9] stands for this setting: conclusion from inhibition groups.
[10] abbreviates: RGD solution (integrin αvβ3 inhibitor), read-out: KD value, Second single inhibition group (CXCR4/GRPR/αvβ3 single inhibition).

Consider `CN1C(=O)[C@@H](Cc2ccc(O)cc2)NC(=O)CNC(=O)[C@H](Cc2ccc3ccccc3c2)NC(=O)[C@H](CCCNC(=N)N)NC(=O)[C@H]1CCCNC(=O)c1ccc(CNC(=O)[C@H](CCCCNC(=O)CN2CCN(CC(=O)O)CCN(CC(=O)O)CCN(CC(=O)O)CC2)NC(=O)CCC(=O)NCCOCCOCC(=O)NCCOCCOCC(=O)N2CCN(CCCOc3ccc4nccc(C(=O)NCC(=O)N5CC(F)(F)C[C@H]5C#N)c4c3)CC2)cc1` [SDYD05, DOTA-FAPI-Pentixafor], for which the “KD values / binding affinity to the receptors (in words)” value (shortened to “KD values / binding affinity”) in data set [1] is on record as “relatively low KD values”. Moreover, the Kd in data set [1] (setting [6]) turned out to be 0.373 ± 0.035 nM. Besides, the Kd in data set [1] (setting [7]) was 1.99 ± 0.312 nM. Moreover, the Kd in data set [1] (setting [8]) worked out at 0.217 ± 0.018 nM. Further, the “PI range of series of peaks” value in data set [2] (unlabeled compound) was 6.617-7.126. In addition, in data set [3], the “cell uptake, comparison of non-inhibition, FAP single, CXCR4 single and dual inhibition groups (in words)” value is listed as “non-inhibition group exhibited the highest cell uptake, followed by the FAP single inhibition group, while the dual inhibition group showed the lowest uptake rate”; the “cell uptake over incubation time (in words)” value was “slowly increased and reached a plateau from 15 to 120 minutes”. Besides, in data set [3] (setting [9]), the “specific binding to CXCR4 protein (in words)” value is “can rapidly and efficiently bind specifically to the CXCR4 protein”; the “specific binding to fibroblast activation protein (in words)” value was “bind specifically to fibroblast activation protein to a certain extent”.
In the case of `CCCCCC(=O)N[C@@H]1CSCc2cc(CSCCNC(=O)COCCOCCNC(=O)COCCOCCNC(=O)CSC3CC(=O)N(CCC(=O)N[C@H](CCCCNC(=O)CN4CCN(CC(=O)O)CCN(CC(=O)O)CCN(CC(=O)O)CC4)C(=O)NCc4ccc(C(=O)NCCC[C@@H]5C(=O)N[C@@H](CCCNC(=N)N)C(=O)N[C@@H](Cc6ccc7ccccc7c6)C(=O)NCC(=O)N[C@H](Cc6ccc(O)cc6)C(=O)N5C)cc4)C3=O)cc(c2)CSC[C@@H](C(=O)O)NC(=O)[C@H](Cc2ccccc2)NC(=O)[C@H](CCC(N)=O)NC(=O)C([C@@H](C)O)NC(=O)[C@@H]2CCCN2C(=O)[C@@H]2CCCN2C1=O` (stereo partly shown) [SDYD06], the “KD values / binding affinity” value in data set [1] is on record as “relatively low KD values”. Besides, the Kd in data set [1] (setting [6]) turned out to be 0.455 ± 0.056 nM; in data set [1] (setting [7]), 0.173 ± 0.012 nM; in data set [1] (setting [8]), 1.41 ± 0.213 nM. In addition, the “behaviour of sample prepared in pure water during isoelectric point measurement” value in data set [2] (pure water) is reported as “insoluble substance formed”. In data set [3], the “cell uptake, comparison of non-inhibition, FAP single, CXCR4 single and dual inhibition groups (in words)” value was “from high to low, were as follows: non-inhibition group, FAP single inhibition group, CXCR4 single inhibition group, and dual inhibition group”. The “cell uptake over incubation time (in words)” value in data set [3] is “slowly increased and reached a plateau from 15 to 120 minutes”.
Turning to `N#C[C@@H]1CC(F)(F)CN1C(=O)CNC(=O)c1ccnc2ccc(OCCCN3CCN(C(=O)[C@H](CCCCNC(=O)CCN4C(=O)CC(SCC(=O)NCCOCCOCCOCCOCCC(=O)NCCCC[C@@H]5NC(=O)[C@@H](Cc6ccc(O)cc6)NC(=O)[C@H](CC(=O)O)NC(=O)CNC(=O)[C@H](CCCNC(=N)N)NC5=O)C4=O)NC(=O)CCC(C(=O)O)N4CCN(CC(=O)O)CCN(CC(=O)O)CCN(CC(=O)O)CC4)CC3)cc12` (stereo partly shown) [SDYD07], the “cell uptake over incubation time (in words)” value in data set [4] was “increased significantly within the first 15 minutes, and then slowly increased”. In addition, in data set [4], the “cell uptake, comparison of non-inhibition, FAP single, integrin αvβ3 single and dual inhibition groups (in words)” value is “from high to low, were as follows: non-inhibition group, FAP single inhibition group, integrin αvβ3 single inhibition group, and dual inhibition group”. The “KD values / binding affinity” value in data set [5] is “relatively low KD values”. Further, the figures for the Kd in data set [5] (setting [6]), in data set [5] (setting [10]) and in data set [5] (setting [8]) were 7.1 ± 1.06 nM, 7.62 ± 0.923 nM and 10.5 ± 1.87 nM, respectively. Also, the “Main peak's PI” value in data set [2] (unlabeled compound) is 4.809.
For the compound `CCCCCC(=O)N[C@H]1CSCc2cc(CSCCNC(=O)[C@H](CCCCNC(=O)CCN3C(=O)CC(SCC(=O)NCCOCCOCCOCCOCCC(=O)NCCCC[C@@H]4NC(=O)[C@@H](Cc5ccc(O)cc5)NC(=O)[C@H](CC(=O)O)NC(=O)CNC(=O)[C@H](CCCNC(=N)N)NC4=O)C3=O)NC(=O)CCC(C(=O)O)N3CCN(CC(=O)O)CCN(CC(=O)O)CCN(CC(=O)O)CC3)cc(c2)CSC[C@@H](C(=O)O)NC(=O)[C@H](Cc2ccccc2)NC(=O)[C@H](CCC(N)=O)NC(=O)C([C@@H](C)O)NC(=O)[C@@H]2CCCN2C(=O)[C@@H]2CCCN2C1=O` (stereo partly shown) [SDYD08], the “cell uptake over incubation time (in words)” value in data set [4] is on record as “increased significantly within the first 15 minutes”. The “cell uptake, comparison of non-inhibition, FAP single, integrin αvβ3 single and dual inhibition groups (in words)” value in data set [4] was “from high to low, were as follows: non-inhibition group, FAP single inhibition group, integrin αvβ3 single inhibition group, and dual inhibition group”. Also, the “specific binding to fibroblast activation protein and integrin αvβ3 (in words)” value in data set [4] (setting [9]) is “can specifically bind to fibroblast activation protein and integrin αvβ3”. Moreover, in data set [5], the “KD values / binding affinity” value was “relatively low KD values”. The results for the Kd in data set [5] (setting [6]), in data set [5] (setting [10]) and in data set [5] (setting [8]) were 7.12 ± 0.558 nM, 10.5 ± 1.06 nM and 8.43 ± 0.475 nM, respectively. In addition, the “Main peak's PI” value in data set [2] (unlabeled compound) turned out to be 2.916.
